Laboratory results: the NIST ThermoML archive (doi:10.1016/j.jct.2011.08.017)
Several values for one entry are separate records, joined by “and”; a condition that tells them apart may be missing. Equal values may be shown once.

Key:
[1] = for Normal melting temperature: DTA
[2] = Molar enthalpy of transition or fusion; details: Crystal; DSC

N#Cc1nc[nH]c1C#N [4,5-dicyanoimidazole]
[1], Crystal, Calculated from knudsen effusion weight loss
Details	vapor or sublimation pressure
383.16 K	0.000153 kPa and 0.00015 kPa
385.16 K	0.000182 kPa and 0.000184 kPa and 0.000183 kPa
387.12 K	0.000223 kPa and 0.000222 kPa
389.16 K	0.000267 kPa and 0.000264 kPa
391.16 K	0.000325 kPa
393.12 K	0.000386 kPa and 0.000383 kPa and 0.000389 kPa
395.16 K	0.000462 kPa and 0.000464 kPa
397.16 K	0.000556 kPa
399.14 K	0.000668 kPa and 0.000664 kPa and 0.000666 kPa
401.16 K	0.000791 kPa and 0.000782 kPa and 0.000796 kPa
403.15 K	0.000954 kPa and 0.000931 kPa and 0.000932 kPa

Details	Normal melting temperature [°C]
[1], Crystal	176

Details	Molar enthalpy of transition or fusion [kcal/mol]
[2]	5.4

Clc1nc[nH]c1Cl [4,5-dichloroimidazole]
[1], Crystal, Closed cell (Static) method
Details	vapor or sublimation pressure
337.91 K	0.00048 kPa
339.87 K	0.00059 kPa
341.87 K	0.00072 kPa
341.88 K	0.00071 kPa
343.83 K	0.00086 kPa
345.84 K	0.00104 kPa
345.85 K	0.00104 kPa
347.81 K	0.00125 kPa
349.81 K	0.00148 kPa and 0.00151 kPa
351.78 K	0.0018 kPa
355.75 K	0.00258 kPa
357.73 K	0.00306 kPa
359.72 K	0.00366 kPa
361.71 K	0.00434 kPa
363.69 K	0.00513 kPa
365.67 K	0.00607 kPa
367.66 K	0.00722 kPa
369.64 K	0.00841 kPa
371.62 K	0.00998 kPa
373.6 K	0.01172 kPa
375.6 K	0.01368 kPa
377.56 K	0.01597 kPa
379.54 K	0.0184 kPa
381.52 K	0.02175 kPa
383.45 K	0.02487 kPa
385.49 K	0.02923 kPa
387.38 K	0.03334 kPa
389.45 K	0.03896 kPa
391.33 K	0.04433 kPa
393.4 K	0.05168 kPa
395.37 K	0.0589 kPa

Details	Normal melting temperature [°C]
[1], Crystal	183.6

Details	Molar enthalpy of transition or fusion [kcal/mol]
[2]	4.21

c1c[nH]cn1 [1H-imidazole]
[1]
Details	vapor or sublimation pressure [kPa]
303.99 K, Crystal, Closed cell (Static) method	0.00058
306.97 K, Crystal, Closed cell (Static) method	0.00079
309.99 K, Crystal, Closed cell (Static) method	0.00108
312.98 K, Crystal, Closed cell (Static) method	0.00145
315.94 K, Crystal, Closed cell (Static) method	0.00195
318.92 K, Crystal, Closed cell (Static) method	0.00263
321.97 K, Crystal, Closed cell (Static) method	0.0035
324.96 K, Crystal, Closed cell (Static) method	0.00469
327.95 K, Crystal, Closed cell (Static) method	0.00621
330.92 K, Crystal, Closed cell (Static) method	0.00819
333.9 K, Crystal, Closed cell (Static) method	0.01063
333.9 K, Metastable liquid, Closed cell (Static) method	0.01485
336.88 K, Crystal, Closed cell (Static) method	0.01377
336.89 K, Metastable liquid, Closed cell (Static) method	0.01859
339.86 K, Crystal, Closed cell (Static) method	0.01782
339.86 K, Metastable liquid, Closed cell (Static) method	0.02311
342.84 K, Crystal, Closed cell (Static) method	0.02289
342.84 K, Metastable liquid, Closed cell (Static) method	0.02848
345.81 K, Metastable liquid, Closed cell (Static) method	0.03509
345.83 K, Crystal, Closed cell (Static) method	0.02923
348.8 K, Crystal, Closed cell (Static) method	0.03701
348.8 K, Metastable liquid, Closed cell (Static) method	0.04297
351.75 K, Metastable liquid, Closed cell (Static) method	0.05222
351.77 K, Crystal, Closed cell (Static) method	0.04693
354.75 K, Crystal, Closed cell (Static) method	0.0592
354.76 K, Metastable liquid, Closed cell (Static) method	0.06354
357.72 K, Crystal, Closed cell (Static) method	0.07394
357.72 K, Metastable liquid, Closed cell (Static) method	0.07682
360.69 K, Metastable liquid, Closed cell (Static) method	0.09288
363.67 K, Closed cell (Static) method, Liquid	0.1112
366.66 K, Closed cell (Static) method, Liquid	0.1336
369.63 K, Closed cell (Static) method, Liquid	0.1596
372.6 K, Closed cell (Static) method, Liquid	0.1912
375.56 K, Closed cell (Static) method, Liquid	0.2249
378.51 K, Closed cell (Static) method, Liquid	0.2655
381.51 K, Closed cell (Static) method, Liquid	0.3134
384.48 K, Closed cell (Static) method, Liquid	0.3688

Details	Normal melting temperature [°C]
[1], Crystal	86.2

Details	Molar enthalpy of transition or fusion [kcal/mol]
[2]	3.13
